Where a name gives a salt, the structure may show the parent alone.
Tested on: intraocular pressure of cynomolgus monkeys
Test: Effect on intraocular pressure in normal cynomolgus monkeys after topical instillation
Assay type: in vivo, cynomolgus monkeys (Macaca fascicularis)
Settings: normal cynomolgus monkey, single eye, 20 μl instillation (Detantol 0.01% bunazosin hydrochloride; Xalatan 0.005% latanoprost; combination: Xalatan 5 minutes after Detantol); IOP measured 2, 4 and 6 hours after administration
Experimental: So as to study the utility of bunazosin in combination with prostaglandin, bunazosin and prostaglandin were administered in combination to cynomolgus monkeys (Macaca fascicularis), examining the effect on intraocular pressure. Latanoprost was used as prostaglandin.
For bunazosin administration, Detantol (trade mark) ophthalmic solution, which contains bunazosin hydrochloride at 0.01%, was used. For latanoprost administration, Xalatan (trade mark) ophthalmic solution, which contains latanoprost at 0.005%, was used.
Cynomolgus monkeys were divided into four groups, a group to be dosed with a vehicle (vehicle group), a group to be dosed with bunazosin (bunazosin group), a group to be dosed with latanoprost (latanoprost group) and a group to be dosed with bunazosin and latanoprost [(bunazosin+latanoprost) group].
• 1. For topical anesthesia, a drop of 0.4% oxybuprocain hydrochloride ophthalmic solution was instilled into a single eye of each normal cynomolgus monkey. Then, intraocular pressure was measured before drug administration. • 2. […] 2, 4 and 6 hours after the administration of these test compound solutions, one drop of 0.4% oxybuprocain hydrochloride eye drops was instilled for topical anesthesia, and the intraocular pressure was measured. The maximum reduction of intraocular pressure in each group was determined by the following formula. […]

| Structure (SMILES) | Maximum reduction of intraocular pressure [mmHg] |
| --- | --- |
| CCCC(=O)N1CCCN(c2nc(N)c3cc(OC)c(OC)cc3n2)CC1 [Bunazosin, Bunazosin hydrochloride] | 1.9 |
| CC(C)OC(=O)CCC/C=C\C[C@@H]1[C@@H](CC[C@@H](O)CCc2ccccc2)[C@H](O)C[C@@H]1O [Latanoprost] | 2.6 |

— patent US20050043412A1, “Remedies for glaucoma comprising bunazosin and prostaglandins” (SANTEN PHARMACEUTICAL CO LTD, priority 2002, published 2005)
